A short description of assay [1]: Hypotensive action on rats under urethane narcosis, blood pressure measured in the carotid artery (ED 20%). Format: in vivo, Sprague-Dawley rats. The settings on record: for Hypotensive effect R.A. (relative activity; chlorpromazine = 1.00) / ED20: rat; for Separation between sedative action and hypotensive action versus chlorpromazine: in words; for Hypotensive action in words: blood pressure lowering doses versus chlorpromazine: narcotized rats; for Hypotensive side effect, in words: versus chlorpromazine. On the procedure:
The blood pressure was measured in the carotid artery. The substance was administered either by introduction into a jugular vein (as an aqueous solution, at the rate of 1 ml/kg) or intraperitoneally as a suspension in tragacanth (at the rate of 10 ml/kg). The ED 20%, i.e. the dose which produces a 20% lowering of the blood pressure, was determined from the linear regression of log dose (mg/kg) and relative lowering of the blood pressure (Δ %).

Assay [2] can be described thus: Sedative action: orientation hypermotility of mice induced by a new environment (ED 50%). Format: in vivo, female NMRI mice. The settings on record: for Sedative effect R.A. (relative activity; chlorpromazine = 1.00) / ED50: mouse, oral administration; for Inhibition of the orientation hypermotility of mice (sedative-neuroleptic action), in words / Sedative action compared with chlorpromazine, in words: mice. On the procedure:
The substance was administered orally to 4-8 groups each comprising 3 female NMRI mice. The orientation hypermotility induced by a new environment was determined photoelectrically, 30 minutes after administration of the substance, over a period of 30 minutes. The ED 50%, i.e. the dose which produces 50% reduction in orientation hypermotility compared to placebo-treated control […], is determined.

Setting [3] is: Table 1, quotient defined by formula drawing 8 (sedative ED 50% mouse oral, hypotensive ED 20% rat i.v.).
[4] abbreviates: Table 1, intravenous administration.
Setting [5] is: Table 1, intravenous administration, read-out: Hypotensive effect ED 20% (dose which reduces the blood pressure by 20%).
The mark [6] stands for this setting: Table 1, read-out: Sedative effect ED 50% (dose which reduces the motility by 50%).
[7] abbreviates: Table 2, defined by formula drawing 9, hypotensive effect i.v.
The mark [8] stands for this setting: Table 2, intravenous (i.v.), read-out: Hypotensive effect ED 20%.
The mark [9] stands for this setting: Table 2, read-out: Sedative effect ED 50%.
Setting [10] is: Table 2, defined by formula drawing 9, hypotensive effect i.p.
The mark [11] stands for this setting: Table 2, intraperitoneal (i.p.).
The mark [12] stands for this setting: ip, Table 2, intraperitoneal (i.p.), read-out: Hypotensive effect ED 20%.

Where two headings read alike, the source gives them in different places.

`COc1ccccc1N1CCN(CCCOc2ccccc2-c2nnco2)CC1` [Example 1]: the Q in assay [1] (setting [3]) was 2,050. For the same molecule, in assay [1] (setting [4]), the “Hypotensive effect R.A. (relative activity; chlorpromazine = 1.00)” value stood at 3.25. The ED20 in assay [1] (setting [5]) was determined as 0.008 mg/kg. Also, in assay [1], the “Separation between sedative action and hypotensive action versus chlorpromazine” value is reported as “substantially greater”; the “Hypotensive action in words: blood pressure lowering doses versus chlorpromazine” value is listed as “significantly lower than in the case of chlorpromazine”. The “Sedative effect R.A. (relative activity; chlorpromazine = 1.00)” value in assay [2] (Table 1) is 0.13. Besides, the ED50 in assay [2] (setting [6]) is 16.4 mg/kg.

For the molecule `COc1ccccc1N1CCN(CCCOc2ccccc2-c2nnc(C)o2)CC1` [Example 3, 1-[2-(5-Methyl-1,3,4-oxadiazol-2-yl)-phenoxy]-3-[4-(2-methoxyphenyl)-piperazin-1-yl]-propane], in assay [1] (setting [3]), the Q came to 534. The “Hypotensive effect R.A. (relative activity; chlorpromazine = 1.00)” value in assay [1] (setting [4]) is 0.68. Moreover, the ED20 in assay [1] (setting [5]) was found to be 0.0384 mg/kg. The “Separation between sedative action and hypotensive action versus chlorpromazine” value in assay [1] is given as “substantially greater”. The “Sedative effect R.A. (relative activity; chlorpromazine = 1.00)” value in assay [2] (Table 1) was determined as 0.10. For the same molecule, the ED50 in assay [2] (setting [6]) turned out to be 20.5 mg/kg.

Turning to `COc1ccccc1N1CCN(CCCOc2cccc(-c3nnco3)c2)CC1` [Example 6, 1-[3-(1,3,4-Oxadiazol-2-yl)-phenoxy]-3-[4-(2-methoxyphenyl)-piperazin-1-yl]-propane], the Q in assay [1] (setting [3]) is given as 417. Moreover, the “Hypotensive effect R.A. (relative activity; chlorpromazine = 1.00)” value in assay [1] (setting [4]) turned out to be 3.38. In addition, in assay [1] (setting [5]), the ED20 came to 0.0077 mg/kg. For the same molecule, in assay [1], the “Separation between sedative action and hypotensive action versus chlorpromazine” value is recorded as “substantially greater”; the “Hypotensive action in words: blood pressure lowering doses versus chlorpromazine” value is listed as “significantly lower than in the case of chlorpromazine”. Also, the “Sedative effect R.A. (relative activity; chlorpromazine = 1.00)” value in assay [2] (Table 1) is recorded as 0.66. The ED50 in assay [2] (setting [6]) was found to be 3.21 mg/kg.

As for `COc1ccccc1N1CCN(CCCOc2cccc(-c3nnc(C)o3)c2)CC1` [Example 7, 1-[3-(5-Methyl-1,3,4-oxadiazol-2-yl)-phenoxy]-3-[4-(2-methoxyphenyl)-piperazin-1-yl]-propane], in assay [1] (setting [3]), the Q is on record as 312. Also, the “Hypotensive effect R.A. (relative activity; chlorpromazine = 1.00)” value in assay [1] (setting [4]) came to 2.17. For the same molecule, the ED20 in assay [1] (setting [5]) came out at 0.0012 mg/kg. Besides, in assay [1], the “Separation between sedative action and hypotensive action versus chlorpromazine” value is recorded as “substantially greater”; the “Hypotensive action in words: blood pressure lowering doses versus chlorpromazine” value was “significantly lower than in the case of chlorpromazine”. Besides, in assay [2] (Table 1), the “Sedative effect R.A. (relative activity; chlorpromazine = 1.00)” value came to 0.56. Further, the ED50 in assay [2] (setting [6]) was 3.74 mg/kg.

In assay [1] (setting [7]), `Fc1ccc(N2CCN(CCCOc3ccc(-n4ccnc4)cc3)CC2)cc1` [Example 10] came in with a Q of 3.0. Also, the “Hypotensive effect R.A. (relative activity; chlorpromazine = 1.00)” value in assay [1] (Table 2, intravenous (i.v.)) came out at 0.03. The ED20 in assay [1] (setting [8]) amounted to 1 mg/kg. Moreover, the “Hypotensive side effect, in words” value in assay [1] is on record as “non-hypotensive action up to doses of 1 or 10 mg/kg”. Further, in assay [2] (Table 2), the “Sedative effect R.A. (relative activity; chlorpromazine = 1.00)” value is recorded as 0.69. In addition, the ED50 in assay [2] (setting [9]) was determined as 3.05 mg/kg. For the same molecule, in assay [2], the “Inhibition of the orientation hypermotility of mice (sedative-neuroleptic action), in words” value (“Inhibition” for short) is reported as “powerful inhibition of the orientation hypermotility of mice” and the “Sedative action compared with chlorpromazine, in words” value is listed as “almost achieved”.

Molecule `COc1ccccc1N1CCN(CCCOc2ccc(-c3nnco3)cc2)CC1` [Example 11, 1-[4-(1,3,4-Oxadiazol-2-yl)-phenoxy]-3-[4-(2-methoxyphenyl)-piperazin-1-yl]-propane] came in with a Q in assay [1] (setting [3]) of 307. Also, the “Hypotensive effect R.A. (relative activity; chlorpromazine = 1.00)” value in assay [1] (setting [4]) turned out to be 3.71. The ED20 in assay [1] (setting [5]) came to 0.007 mg/kg. In assay [1], the “Separation between sedative action and hypotensive action versus chlorpromazine” value is given as “substantially greater”; the “Hypotensive action in words: blood pressure lowering doses versus chlorpromazine” value is listed as “significantly lower than in the case of chlorpromazine”. In addition, in assay [2] (Table 1), the “Sedative effect R.A. (relative activity; chlorpromazine = 1.00)” value was 0.98. Moreover, the ED50 in assay [2] (setting [6]) was 2.15 mg/kg.

Molecule `Fc1ccc(N2CCN(CCCNc3ccc(-n4cncn4)cc3)CC2)cc1` [Example 14, 1-[4-(1,2,4-Triazol-1-yl)-phenylamino]-3-[4-(4-fluorophenyl)-piperazin-1-yl]-propane] returned a Q in assay [1] (setting [10]) of 0.08. The “Hypotensive effect R.A. (relative activity; chlorpromazine = 1.00)” value in assay [1] (setting [11]) is recorded as 0.02. In addition, the ED20 in assay [1] (setting [12]) was 10 mg/kg. Besides, the “Hypotensive side effect, in words” value in assay [1] is “non-hypotensive action up to doses of 1 or 10 mg/kg”. In addition, the “Sedative effect R.A. (relative activity; chlorpromazine = 1.00)” value in assay [2] (Table 2) is 2.59. Moreover, the ED50 in assay [2] (setting [9]) was 0.818 mg/kg. Also, in assay [2], the “Inhibition” value is listed as “powerful inhibition of the orientation hypermotility of mice” and the “Sedative action compared with chlorpromazine, in words” value was “clearly surpassed”.

The molecule `Fc1ccc(N2CCN(CCCNc3ccc(-n4ccnc4)cc3)CC2)cc1` [Example 15, 1-[4-(Imidazol-1-yl)-phenylamino]-3-[4-(4-fluorophenyl)-piperazin-1-yl]-propane] gave a Q in assay [1] (setting [7]) of 0.16. The “Hypotensive effect R.A. (relative activity; chlorpromazine = 1.00)” value in assay [1] (Table 2, intravenous (i.v.)) was determined as 0.003. The ED20 in assay [1] (setting [8]) was determined as 10 mg/kg. Besides, the “Hypotensive side effect, in words” value in assay [1] is “non-hypotensive action up to doses of 1 or 10 mg/kg”. Further, the “Sedative effect R.A. (relative activity; chlorpromazine = 1.00)” value in assay [2] (Table 2) was found to be 1.3. For the same molecule, the ED50 in assay [2] (setting [9]) stood at 1.62 mg/kg. Moreover, in assay [2], the “Inhibition” value is reported as “powerful inhibition of the orientation hypermotility of mice” and the “Sedative action compared with chlorpromazine, in words” value is listed as “clearly surpassed”.

Take `CN(C)CCCN1c2ccccc2Sc2ccc(Cl)cc21` [chlorpromazine, reference compound]: the Q in assay [1] (setting [3]) was determined as 81; in assay [1] (setting [10]) it was 12.9; in assay [1] (setting [7]), 81.0. For the same molecule, the “Hypotensive effect R.A. (relative activity; chlorpromazine = 1.00)” value in assay [1] (setting [4]) was 1.00; in assay [1] (setting [11]) it was 1.0; in assay [1] (Table 2, intravenous (i.v.)) it was 1.0. For the same molecule, the ED20 in assay [1] (setting [5]) came out at 0.026 mg/kg; in assay [1] (setting [8]) it was 0.026 mg/kg; in assay [1] (setting [12]), 0.164 mg/kg. Moreover, the “Hypotensive side effect, in words” value in assay [1] is listed as “observed even at low doses”. Besides, the “Sedative effect R.A. (relative activity; chlorpromazine = 1.00)” value in assay [2] (Table 1) was found to be 1.00; in assay [2] (Table 2), 1.0. Also, in assay [2] (setting [9]), the ED50 is 2.11 mg/kg.

The record behind these values is patent US4619929A, “Phenylpiperazine derivatives of hetarylphenols and hetarylanilines, their preparation, and therapeutic agents containing these compounds” (BASF Aktiengesellschaft, priority 1981, dated 1986).
